From ChEMBL document CHEMBL5634070, “Assessment of the structure-activity relationship and antileukemic activity of diacylpyramide compounds as human ClpP agonists” (Eur J Med Chem, 2023)
Calls of active or inactive are those of the source. No cut-off for these calls is given here.

What was measured:
[1] = biological target: T1, ATP-dependent Clp protease proteolytic subunit, mitochondrial (Homo sapiens, UniProt Q16740); assay: Agonist activity at human CLpP by measuring alpha-casein hydrolysis using alpha-casein as substrate preincubated for 10 mins followed by substrate addition and measured after 120 mins by Coomassie brilliant blue staining based SDS-PAGE assay
MOLM-13 [2] = assay: Antiproliferative activity against human MOLM-13 cells assessed as inhibition of cell growth at 20 uM by CCK-8 assay relative to control; assay type: functional
[3] = biological target: T1, ATP-dependent Clp protease proteolytic subunit, mitochondrial; assay: Agonist activity at human CLpP by measuring alpha-casein hydrolysis using alpha-casein as substrate by FITC staining based assay
[4] = biological target: T1, ATP-dependent Clp protease proteolytic subunit, mitochondrial; assay: Binding affinity to human CLpP assessed as change in melting temperature by DSF assay; conditions: filed as agonist
[5] = biological target: T1, ATP-dependent Clp protease proteolytic subunit, mitochondrial; assay: Binding affinity to CLpP in human MOLM-13 cells assessed as thermal stabilization at 10 uM at 52.9 to 78 degreeC by cellular thermal shift assay; assay type: cell-based; conditions: filed as agonist
[6] = biological target: T1, ATP-dependent Clp protease proteolytic subunit, mitochondrial; assay: Binding affinity to CLpP in human HEL cells assessed as thermal stabilization at 10 uM at 52.9 to 78 degreeC by cellular thermal shift assay; assay type: cell-based; conditions: filed as agonist
[7] = biological target: T1, ATP-dependent Clp protease proteolytic subunit, mitochondrial; assay: Binding affinity to CLpP in human MV4-11 cells assessed as thermal stabilization at 10 uM at 52.9 to 78 degreeC by cellular thermal shift assay; assay type: cell-based; conditions: filed as agonist
HEL [8] = assay: Antiproliferative activity against human HEL cells assessed as inhibition of cell growth incubated for 72 hrs by CCK-8 assay; assay type: functional, cell-based
MOLM-13 [9] = assay: Antiproliferative activity against human MOLM-13 cells assessed as inhibition of cell growth incubated for 72 hrs by CCK-8 assay; assay type: functional, cell-based; conditions: MOLM-13, 72 h
MV4-11 [10] = assay: Antiproliferative activity against human MV4-11 cells assessed as inhibition of cell growth incubated for 72 hrs by CCK-8 assay; assay type: functional, cell-based; conditions: MV4-11, 72 h
NB-4 [11] = assay: Antiproliferative activity against human NB4 cells assessed as inhibition of cell growth incubated for 72 hrs by CCK-8 assay; assay type: functional, cell-based; conditions: NB-4, 72 h
NB-4 [12] = assay: Inhibition of colony formation in human NB4 cells incubated for 14 days; assay type: functional, cell-based; conditions: time 14.0 day
NB-4 [13] = assay: Antileukemic activity against human NB4 cells assessed as downregulation of NDUFA12 protein expression incubated for 24 hrs by Western blotting analysis; assay type: functional, cell-based
NB-4 [14] = assay: Antileukemic activity against human NB4 cells assessed as downregulation of NDUFB8 protein expression incubated for 24 hrs by Western blotting analysis; assay type: functional, cell-based
NB-4 [15] = assay: Antileukemic activity against human NB4 cells assessed as downregulation of NDUFV2 protein expression incubated for 24 hrs by Western blotting analysis; assay type: functional, cell-based
NB-4 [16] = assay: Antileukemic activity against human NB4 cells assessed as downregulation of SDHA protein expression incubated for 24 hrs by Western blotting analysis; assay type: functional, cell-based
NB-4 [17] = assay: Antileukemic activity against human NB4 cells assessed as downregulation of SDHB protein expression incubated for 24 hrs by Western blotting analysis; assay type: functional, cell-based
NB-4 [18] = assay: Antileukemic activity against human NB4 cells assessed as downregulation of UQCRC2 protein expression incubated for 24 hrs by Western blotting analysis; assay type: functional, cell-based
Cell membrane = assay: Induction of mitochondrial membrane potential loss in human MOLM-13 cells at 10 uM incubated upto 48 hrs by TMRE staining based assay
MOLM-13 [19] = assay: Antileukemic activity against human MOLM-13 cells assessed as reduction in cellular ATP content at 10 uM incubated upto 48 hrs; assay type: functional, cell-based
MOLM-13 [20] = assay: Antileukemic activity against human MOLM-13 cells assessed as reduction in mitochondrial DNA content at 10 uM incubated for 24 hrs; assay type: functional, cell-based
MV4-11 [21] = assay: Antileukemic activity against human MV4-11 cells assessed as reduction in mitochondrial DNA content at 10 uM incubated for 24 hrs; assay type: functional, cell-based
HEL [22] = assay: Antileukemic activity against human HEL cells assessed as reduction in mitochondrial DNA content at 10 uM incubated for 24 hrs; assay type: functional, cell-based
NB-4 [23] = assay: Antileukemic activity against human NB4 cells assessed as reduction in mitochondrial DNA content at 10 uM incubated for 24 hrs; assay type: functional, cell-based
MOLM-13 [24] = assay: Inhibition of mitochondrial respiration in human MOLM-13 cells assessed as reduction in oxygen consumption rate at 5 uM incubated for 24 hrs; assay type: functional, cell-based
MOLM-13 [25] = assay: Inhibition of mitochondrial respiration in human MOLM-13 cells assessed as reduction in oxygen consumption rate at 10 uM incubated for 24 hrs; assay type: functional, cell-based
MV4-11 [26] = assay: Inhibition of mitochondrial respiration in human MV4-11 cells assessed as reduction in oxygen consumption rate at 5 uM incubated for 24 hrs; assay type: functional, cell-based
MV4-11 [27] = assay: Inhibition of mitochondrial respiration in human MV4-11 cells assessed as reduction in oxygen consumption rate at 10 uM incubated for 24 hrs; assay type: functional, cell-based
NB-4 [28] = assay: Inhibition of mitochondrial respiration in human NB4 cells assessed as reduction in oxygen consumption rate at 5 uM incubated for 24 hrs; assay type: functional, cell-based
NB-4 [29] = assay: Inhibition of mitochondrial respiration in human NB4 cells assessed as reduction in oxygen consumption rate at 10 uM incubated for 24 hrs; assay type: functional, cell-based
MOLM-13 [30] = assay: Induction of apoptosis in human MOLM-13 cells incubated for 24 to 72 hrs; assay type: functional, cell-based; conditions: time 24-72 hrs
MV4-11 [31] = assay: Induction of apoptosis in human MV4-11 cells incubated for 24 to 72 hrs; assay type: functional, cell-based; conditions: time 24-72 hrs
NB-4 [32] = assay: Induction of apoptosis in human NB4 cells incubated for 24 to 72 hrs; assay type: functional, cell-based; conditions: time 24-72 hrs
MV4-11 [33] = assay: Antiproliferative activity against human MV4-11 cells cultured as 3D cells assessed as inhibition of cell growth; assay type: functional, cell-based
MV4-11 [34] = assay: Antileukemic activity against human MV4-11 cells xenografted in BALB/c mouse assessed as reduction in tumor volume at 30 mg/kg,ip administrated for 30 days; assay type: functional, organism-based; conditions: time 30.0 day
MV4-11 [35] = assay: Antileukemic activity against human MV4-11 cells xenografted in BALB/c mouse assessed as reduction in tumor volume at 60 mg/kg,ip administrated for 30 days; assay type: functional, organism-based; conditions: time 30.0 day
MV4-11 [36] = assay: Antileukemic activity against human MV4-11 cells xenografted in BALB/c mouse assessed as reduction in tumor weight at 30 mg/kg,ip administrated for 30 days; assay type: functional, organism-based; conditions: time 30.0 day
MV4-11 [37] = assay: Antileukemic activity against human MV4-11 cells xenografted in BALB/c mouse assessed as reduction in tumor weight at 60 mg/kg,ip administrated for 30 days; assay type: functional, organism-based; conditions: time 30.0 day
NB-4 [38] = assay: Antileukemic activity against human NB4 cells xenografted in BALB/c mouse assessed as reduction in tumor volume at 30 mg/kg,ip administrated for 30 days; assay type: functional, organism-based; conditions: time 30.0 day
NB-4 [39] = assay: Antileukemic activity against human NB4 cells xenografted in BALB/c mouse assessed as reduction in tumor volume at 60 mg/kg,ip administrated for 30 days; assay type: functional, organism-based; conditions: time 30.0 day
NB-4 [40] = assay: Antileukemic activity against human NB4 cells xenografted in BALB/c mouse assessed as reduction in tumor weight at 30 mg/kg,ip administrated for 30 days; assay type: functional, organism-based; conditions: time 30.0 day
NB-4 [41] = assay: Antileukemic activity against human NB4 cells xenografted in BALB/c mouse assessed as reduction in tumor weight at 60 mg/kg,ip administrated for 30 days; assay type: functional, organism-based; conditions: time 30.0 day
[42] = Toxicity in BALB/c mouse xenografted with human MV4-11 cells assessed as change in body weight at 30 mg/kg,ip administrated for 30 days; assay type: organism-based; conditions: in vivo, 720 h, time 30 day
[43] = Toxicity in BALB/c mouse xenografted with human MV4-11 cells assessed as change in body weight at 60 mg/kg,ip administrated for 30 days; assay type: organism-based; conditions: in vivo, 720 h, time 30 day
[44] = Toxicity in BALB/c mouse xenografted with human NB4 cells assessed as change in body weight at 30 mg/kg,ip administrated for 30 days; assay type: organism-based, NB-4; conditions: in vivo, 720 h, time 30 day
[45] = Toxicity in BALB/c mouse xenografted with human NB4 cells assessed as change in body weight at 60 mg/kg,ip administrated for 30 days; assay type: organism-based, NB-4; conditions: in vivo, 720 h, time 30 day

T1 sequence (Q16740 whole entry): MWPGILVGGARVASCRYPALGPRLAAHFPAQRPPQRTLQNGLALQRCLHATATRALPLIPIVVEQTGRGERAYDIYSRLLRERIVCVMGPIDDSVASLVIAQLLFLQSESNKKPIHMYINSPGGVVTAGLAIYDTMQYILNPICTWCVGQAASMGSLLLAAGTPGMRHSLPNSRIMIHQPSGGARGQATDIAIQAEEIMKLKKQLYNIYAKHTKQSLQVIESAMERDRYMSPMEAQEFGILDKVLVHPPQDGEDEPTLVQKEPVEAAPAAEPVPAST

Work on `CC[C@H](C)[C@H]1C(=O)N(Cc2ccc(OC)c3ccccc23)C[C@@H]2N(C(=O)NCc3ccc(Br)cc3)CCC(=O)N12` yielded an EC50 [1] of 2.2 µM, an inhibition at 20 µM (MOLM-13 [2]) of 99.6% and an EC50 [3] of 0.54 µM. For the same compound, the ΔTm [4] was 21.8 °C, the Activity [5] was “Active” and the Activity [6] was “Active”. For the same compound, the Activity [7] was “Active”, the IC50 (HEL [8]) was 3.3 µM and the IC50 (MOLM-13 [9]) was 2.9 µM. For the same compound, the IC50 (MV4-11 [10]) was 5.8 µM, the IC50 (NB-4 [11]) was 4.9 µM and the inhibition (NB-4 [12]) was “Dose-Dependent Effect”. For the same compound, the Activity (NB-4 [13]) was “Dose-Dependent Effect”, the Activity (NB-4 [14]) was “Dose-Dependent Effect” and the Activity (NB-4 [15]) was “Dose-Dependent Effect”. For the same compound, the Activity (NB-4 [16]) was “Dose-Dependent Effect”, the Activity (NB-4 [17]) was “Dose-Dependent Effect” and the Activity (NB-4 [18]) was “Dose-Dependent Effect”. The Activity (Cell membrane) was “Active”, the Activity (MOLM-13 [19]) was “Active” and the Activity (MOLM-13 [20]) was “Active”. The Activity (MV4-11 [21]) was “Active”, the Activity (HEL [22]) was “Active” and the Activity (NB-4 [23]) was “Active”. For the same compound, the inhibition (MOLM-13 [24]) was “Active”, the inhibition (MOLM-13 [25]) was “Active” and the inhibition (MV4-11 [26]) was “Active”. The inhibition (MV4-11 [27]) was “Active”, the inhibition (NB-4 [28]) was “Active” and the inhibition (NB-4 [29]) was “Active”. For the same compound, the Activity (MOLM-13 [30]) was “Active”, the Activity (MV4-11 [31]) was “Active” and the Activity (NB-4 [32]) was “Active”. For the same compound, the Activity (MV4-11 [33]) was “Dose-Dependent Effect”, the Activity (MV4-11 [34]) was “Active” and the Activity (MV4-11 [35]) was “Active”. The Activity (MV4-11 [36]) was “Active”, the Activity (MV4-11 [37]) was “Active” and the Activity (NB-4 [38]) was “Active”. For the same compound, the Activity (NB-4 [39]) was “Active”, the Activity (NB-4 [40]) was “Active” and the Activity (NB-4 [41]) was “Active”. For the same compound, the Activity [42] was “Non-Toxic”, the Activity [43] was “Non-Toxic” and the Activity [44] was “Non-Toxic”. The Activity [45] was “Non-Toxic”.
